Each block holds one compound with its values, some of them ahead of it.
Key:
[1] = Inhibition of KRAS G12D mutant (unknown origin) to CRAF (unknown origin) protein protein interaction; design: species or system Homo sapiens
GTPase KRas/RAF1 = GTPase KRas/RAF1 (Homo sapiens, UniProt P01116); experiment: Inhibition of KRAS (unknown origin) to CRAF (unknown origin) protein protein interaction; format: protein assay
GTPase KRas = GTPase KRas (Homo sapiens, UniProt P01116, G12D); experiment: Inhibition of human KRAS G12D mutant in human AGS cells assessed as reduction in phosphorylated ERK level incubated for 3 hrs; format: cell-based
GTPase KRas, sequence (P01116 whole entry G12D): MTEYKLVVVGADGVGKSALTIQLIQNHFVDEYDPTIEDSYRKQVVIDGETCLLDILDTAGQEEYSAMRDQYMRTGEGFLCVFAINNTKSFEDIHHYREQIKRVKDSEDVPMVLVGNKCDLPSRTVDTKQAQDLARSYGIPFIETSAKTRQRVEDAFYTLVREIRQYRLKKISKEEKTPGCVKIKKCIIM

Homo sapiens = species on record: Homo sapiens; experiment: Selectivity ratio of IC50 for inhibition of KRAS G12D mutant (unknown origin) to CRAF (unknown origin) protein protein interaction to IC50 for KRAS (unknown origin) to CRAF (unknown origin) protein protein interaction; details: tested as the 2H-labelled form

GTPase KRas/RAF1, sequence (P04049 whole entry): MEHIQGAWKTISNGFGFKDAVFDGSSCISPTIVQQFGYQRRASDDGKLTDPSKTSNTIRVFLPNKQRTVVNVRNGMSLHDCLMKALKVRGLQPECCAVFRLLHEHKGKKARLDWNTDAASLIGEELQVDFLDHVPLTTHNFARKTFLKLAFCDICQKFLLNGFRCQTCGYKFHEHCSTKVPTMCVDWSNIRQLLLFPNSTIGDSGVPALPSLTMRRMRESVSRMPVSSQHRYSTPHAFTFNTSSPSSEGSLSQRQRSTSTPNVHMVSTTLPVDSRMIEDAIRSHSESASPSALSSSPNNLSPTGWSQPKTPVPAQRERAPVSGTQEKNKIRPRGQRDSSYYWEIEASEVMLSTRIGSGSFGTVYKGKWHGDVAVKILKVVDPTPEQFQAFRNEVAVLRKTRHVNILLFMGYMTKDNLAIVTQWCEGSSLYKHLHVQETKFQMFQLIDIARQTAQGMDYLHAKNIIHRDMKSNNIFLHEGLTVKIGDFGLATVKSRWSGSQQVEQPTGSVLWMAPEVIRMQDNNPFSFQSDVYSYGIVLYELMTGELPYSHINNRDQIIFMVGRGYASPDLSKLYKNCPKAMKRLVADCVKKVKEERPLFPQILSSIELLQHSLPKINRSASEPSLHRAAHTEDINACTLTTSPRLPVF
GTPase KRas/RAF1, sequence (P01116 whole entry): as the sequence (P01116 whole entry G12D) above, with D12G counted along it

Structure (SMILES): [2H]C1([2H])CC[C@@]2(COc3nc(N4CC5CCC4CN5)c4cnc(-c5cc(O)cc6ccc(F)c(C#C)c56)c(F)c4n3)C[C@@]([2H])(F)CN12 (some centres undefined)
IC50 [1]: 5.07 nM
IC50 (GTPase KRas/RAF1): 59.6 nM
IC50 (GTPase KRas): ≤ 50 nM

Structure (SMILES): Oc1cc(Cl)c(C(F)(F)F)c(-c2ncc3c(N4CC5CCC4CN5)nc(OCC45CCCN4CCC5)nc3c2F)c1 (centres undefined)
IC50 (GTPase KRas): > 1 nM

Structure (SMILES): [2H][C@H]1CN2CCC[C@@]2(COc2nc(N3CC4CCC3CN4)c3cnc(-c4cc(O)cc5ccc(F)c(C#C)c45)c(F)c3n2)C1 (some centres undefined)
IC50 [1]: 3.95 nM
IC50 (GTPase KRas/RAF1): 48.9 nM
IC50 (GTPase KRas): ≤ 50 nM

Structure (SMILES): [2H]C1([2H])CC[C@]2(COc3nc(N4CC5CCC4CN5)c4cnc(-c5cc(O)cc(Cl)c5C5CC5)c(F)c4n3)C[C@]([2H])(F)CN12 (some centres undefined)
IC50 (GTPase KRas): > 50 nM

Structure (SMILES): Oc1cc(Cl)c(C2CC2)c(-c2ncc3c(N4CC5CCC4CN5)nc(OC[C@]45CCCN4C[C@@H](F)C5)nc3c2F)c1 (some centres undefined)
IC50 (GTPase KRas): > 50 nM

Structure (SMILES): [2H]C1([2H])CC[C@@]2(COc3nc(N4CC5CCC4CN5)c4cnc(-c5cc(O)cc(F)c5C5CC5)c(F)c4n3)C[C@@]([2H])(F)CN12 (some centres undefined)
IC50 (GTPase KRas): > 50 nM

Structure (SMILES): Oc1ccc(C(F)(F)F)c(-c2ncc3c(N4CC5CCC4CN5)nc(OCC45CCCN4CCC5)nc3c2F)c1 (centres undefined)
IC50 (GTPase KRas): > 1 nM

Next, values leading:

IC50 (GTPase KRas): ≤ 50 nM
Ratio IC50 (Homo sapiens): > 72
Structure (SMILES): Oc1cc(Cl)c(C2CC2)c(-c2ncc3c(N4CC5CCC4CN5)nc(OC[C@@]45CCCN4C[C@H](F)C5)nc3c2F)c1 (some centres undefined)

IC50 [1]: 13.9 nM
IC50 (GTPase KRas/RAF1): > 1000 nM
IC50 (GTPase KRas): ≤ 50 nM
Structure (SMILES): [2H]C1([2H])CC[C@@]2(COc3nc(N4CC5CCC4CN5)c4cnc(-c5cc(O)cc(Cl)c5C5CC5)c(F)c4n3)C[C@@]([2H])(F)CN12 (some centres undefined)

Ratio IC50 (Homo sapiens): 12
Structure (SMILES): C#Cc1c(F)ccc2cc(O)cc(-c3ncc4c(N5CC6CCC5CN6)nc(OCC56CCCN5CCC6)nc4c3F)c12 (centres undefined)

Ratio IC50 (Homo sapiens): 12
Structure (SMILES): C#Cc1c(F)ccc2cc(O)cc(-c3ncc4c(N5CC6CCC5CN6)nc(OC[C@@]56CCCN5C[C@H](F)C6)nc4c3F)c12 (some centres undefined)

IC50 (GTPase KRas): ≤ 50 nM
Structure (SMILES): [2H]C1([2H])CC[C@@]2(COc3nc(N4CC5CCC4CN5)c4cnc(-c5cc(O)cc6ccc(F)c(F)c56)c(F)c4n3)C[C@@]([2H])(F)CN12 (some centres undefined)
